{"source": "ChEMBL document CHEMBL5226325", "about": "“Optimization of a Screening Hit toward M2912, an Oral Tankyrase Inhibitor with Antitumor Activity in Colorectal Cancer Models” (J Med Chem, 2021)", "key": {"HT55": {"system": "HT55", "assay": "Cytotoxicity against human HT55 cells assessed as reduction in cell growth incubated for 14 days by resazurin dye based assay", "format": "functional", "conditions": "time 14.0 day"}, "[1]": {"assay": "Toxicity in CB17-SCID mouse xenografted with human COLO 320 cells assessed as drug tolerance at 15 mg/kg, po administered twice daily via gavage for 20 days", "format": "organism-based", "conditions": "in vivo, 480 h, time 20 day"}}}
{"smiles": "Cc1ccc2c(=O)[nH]c(-c3ccc(C(C)(C)O)cc3)cn12", "values": [{"measurement": "Activity", "setting": "HT55", "value": "Dose-Dependent Effect"}, {"measurement": "Activity", "setting": "[1]", "value": "Non-Toxic"}]}
